# In patent publication US20080305189A1, “TREATMENT OF ASPIRIN RESISTANCE WITH RADIX SALVIAE MILTIORRHIZAE, ITS EXTRACT AND COMPOSITION” (Tianjin Tasly Pharmaceutical Co., Ltd., priority 2003, published 2008):
# Key:
# [1] = test system: urinary 11-dehydrothromboxane B2 (TXB2); test: Test Example 3: urinary 11-dehydrothromboxane B2 by immunoenzyme assay, Compound Danshen Tablets study; assay type: in vivo, human; conditions: group mean, n = 50; cardiovascular outpatients with tendency of aspirin resistance; drugs for at least half a year
# From the text: 150 patients in this study were all selected from the cardiovascular outpatients having the tendency of aspirin resistance. All the patients, including 80 males and 70 females, aged between 70˜85, with the average age of 77. To treat aspirin resistance, 50 patients administered aspirin (aspirin group), 50 patients administered Compound Danshen Tablets (CDT group), and 50 patients administered aspirin and CDT simultaneously (combination therapy group). All the patients administered drugs for at least half a year before sampling.
# The urinary sample was the middle section of the first urina of the day. The urinary sample was placed in the liquid nitrogen immediately after sampling and stored at −86□ in a low-temperature refrigerator. The urinary 11-dehydrothromboxane B2 (TXB2) was determined by immunoenzyme assay using the reagent kit of Cayman Chemical company. […] Information about patient grouping was double-blind for researchers and statisticians.
# [2] = test system: urinary 11-dehydrothromboxane B2 (TXB2); test: Test Example 2: urinary 11-dehydrothromboxane B2 by immunoenzyme assay, CDDP study; assay type: in vivo, human; conditions: group mean, n = 50; drugs for at least half a year
# From the text: This study adopted a reviewing method, and the normal value referred to the research results about aspirin resistance in Australia.
# All 178 patients, including 140 males and 38 females, came from the retired personnel of the First Sanatorium, Bafenbu Sanatorium. The patients were aged 70˜87 and the average age was 77.1. 170 patients were randomly selected for sample test and the number of patients whose data could be accepted was 150 (IC20˜IC80). Of those enrolled in the study, in addition to aspirin resistance, 91 patients were afflicted with hypertension, 25 patients were afflicted with hyperlipidemia, 32 patients were afflicted with diabetes, 139 patients were afflicted with coronary heart disease, and 57 patients were afflicted with cerebrovascular diseases. […] All the patients administered drugs for at least half a year before sampling.
# The urinary sample was the middle section of the first urina of the day. The urinary sample was placed in the liquid nitrogen immediately after sampling and stored at −86[…] in a low-temperature refrigerator. The urinary 11-dehydrothromboxane B2 (TXB2) was determined by immunoenzyme assay using the reagent kit of Cayman Chemical company. All the experiments were completed in the Biological Institute of Tasly Research Academy. Information about patient grouping was double-blind for researchers and statisticians. […]
smiles,measurement,setting,value
"CC(=O)Oc1ccccc1C(=O)O [Aspirin, aspirin]","Urinary 11-dehydro TXB2, X ± SD",[1],25.05 ± 10.42 ng/mmol
same,"Urinary 11-dehydro TXB2, X ± SD",[2],25.02 ± 10.51 ng/mmol
